According to patent publication US7807439B2, “Staphylococcus aureus-specific detection media and identifying and/or counting method using same” (Biomerieux S.A., priority 2001, dated 2010):

Tested on: S. aureus 8507285
Test: Experiment 7: effect of maltose on α-glucosidase activity, weak inocula
Format: cell-based, Staphylococcus aureus
Parameters: key: 0 corresponds to a lack of activity; 0.1 corresponds to the presence of a trace of coloration; 0.5 corresponds to the presence of a very pale coloration; 1 corresponds to the presence of a clear coloration of weak intensity; 1.5 corresponds to the presence of a coloration which is intermediate between colorations 1 and 2; 2 corresponds to the presence of a true coloration of medium intensity; 2.5 corresponds to the presence of a coloration which is intermediate between colorations 2 and 3; 3 corresponds to the presence of an intense coloration; 3.5 corresponds to the presence of a coloration which is intermediate between colorations 3 and 4; 4 corresponds to the presence of a very intense coloration
Conditions: strain 4
Procedure: The maltose is solubilized in water at a concentration of, for example, 100 g/l, and then a sufficient volume to obtain the final concentrations above is added to the three molten media. The Staphylococcal strains derived from the bioMérieux internal collection were seeded onto each one of the chromogenic media on their own (closely spaced perpendicular streaks over the entire surface of the dish) using a suspension at 0.5 MacFarland diluted to 1/30000. The dishes were incubated at 37° C. for 48 hours. The colonies formed were examined visually after 18, 24 and 48 hours of incubation and the intensity of coloration of the colonies was marked. The coloration was noted and the intensity of these colorations was marked. The reading scale is the same as that used above for tables 2 and 4.

SMILES: OC[C@H]1O[C@H](O[C@H]2[C@H](O)[C@@H](O)C(O)O[C@@H]2CO)[C@H](O)[C@@H](O)[C@@H]1O (mixture of isomers) [Maltose, maltose]
- Intensity of coloration of the colonies (18 h, Maltose 100 mg/l): 0
- Intensity of coloration of the colonies (18 h, Maltose 300 mg/l): 0
- Intensity of coloration of the colonies (18 h, Maltose 400 mg/l): 0
- Intensity of coloration of the colonies (24 h, Maltose 100 mg/l): 0.3
- Intensity of coloration of the colonies (24 h, Maltose 300 mg/l): 0.3
- Intensity of coloration of the colonies (24 h, Maltose 400 mg/l): 0.3
- Intensity of coloration of the colonies (>40 h, Maltose 100 mg/l): 0.8
- Intensity of coloration of the colonies (>40 h, Maltose 300 mg/l): 1
- Intensity of coloration of the colonies (>40 h, Maltose 400 mg/l): 1.3
